Earlier results as cited in paper PMC9773016, “Strebluses E–H, four new stilbene-like derivatives from the stems of Streblus ilicifolius” (RSC Advances, 2022).

Biological target: Mushroom tyrosinase (Agaricus bisporus, UniProt C7FF04)
Parameters: method as in PMID 34306141, PMID 33939585
Conditions: value from previous study of the same authors; read-out: tyrosinase inhibitory effect IC50

Mushroom tyrosinase, sequence (C7FF04 1-392): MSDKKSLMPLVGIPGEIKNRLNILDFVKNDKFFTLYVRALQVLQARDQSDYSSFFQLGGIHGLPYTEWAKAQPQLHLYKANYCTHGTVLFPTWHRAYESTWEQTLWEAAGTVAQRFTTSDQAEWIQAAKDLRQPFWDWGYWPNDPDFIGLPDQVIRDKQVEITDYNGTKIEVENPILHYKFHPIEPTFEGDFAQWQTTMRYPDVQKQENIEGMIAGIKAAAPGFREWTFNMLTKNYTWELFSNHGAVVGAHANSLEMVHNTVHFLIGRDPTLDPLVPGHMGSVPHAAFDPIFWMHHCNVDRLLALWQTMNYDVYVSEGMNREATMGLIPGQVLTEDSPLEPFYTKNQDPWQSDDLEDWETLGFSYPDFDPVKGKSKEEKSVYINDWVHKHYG

Compound: CC(C)=CC[C@@]12OC(C)(C)O[C@@H]1CC(/C=C/c1ccc(O)cc1O)=CC2=O [Streblus C]
- IC50: 0.01 µM
